These results are taken from patent publication US7772408B1, “Substituted 5-alkoxypsoralens as inhibitors of potassium channel activity in lymphocytes and other cells” (The Regents of the University of California, priority 2002, dated 2010).

Where no end group is shown, it is not given here.

One data set deals with T1, Nav1.2 (Mus musculus, UniProt B1AWN6).
T1 construct: endogenous in cells
Briefly: Whole-cell patch-clamp, sodium channel Nav1.2 (N1E-115). Particulars: ratio Kd Nav1.2/Kd Kv1.3. The data set is classed as cell-based. Background: Patch clamp records ionic current or voltage across a cell membrane.

Another data set in a line: LogP determined by HPLC. The data set is classed as physicochemical.
In data set [1] the target is Kv1.3 (UniProt P16390). Put plainly: Whole-cell patch-clamp on a cell line stably expressing Kv1.3. The data set is classed as cell-based. Details: Kd Kv1.3; other: whole-cell patch-clamp, cell line stably expressing Kv1.3; Kd Kv1.3; mean ± S.D; Kd Kv1.3 (cloned); other: whole-cell patch-clamp, three to five concentrations, n = 3. Particulars: whole-cell patch-clamp, cell line stably expressing Kv1.3; mean ± S.D. The procedure:
(§1) Electrophysiology. All experiments were conducted in the whole-cell configuration of the patch-clamp technique with a holding potential of −80 mV on a cell line stably expressing Kv1.3. Pipette resistances averaged 2.0 MΩ, and series resistance compensation of 80% was employed when currents exceeded 2 nA. Kv1.3 currents were elicited by repeated 200 ms or 2 sec pulses from −80 mV to 40 mV, applied at intervals of 30 or 60 s.

In data set [2] the target is Kv1.3 (UniProt P16390). The description is as above. To be noted: FIG. 1A / 1B. The data set is classed as cell-based. The method, then:
as §1

In data set [3] the test system is delayed-type hypersensitivity (DTH) response. To be noted: mini-pigs, cited from earlier work.
The target in another data set is potassium channels. To be noted: background statement; read-out: Kd, block of potassium channels; cited from earlier work.

T1 sequence (B1AWN6 whole entry): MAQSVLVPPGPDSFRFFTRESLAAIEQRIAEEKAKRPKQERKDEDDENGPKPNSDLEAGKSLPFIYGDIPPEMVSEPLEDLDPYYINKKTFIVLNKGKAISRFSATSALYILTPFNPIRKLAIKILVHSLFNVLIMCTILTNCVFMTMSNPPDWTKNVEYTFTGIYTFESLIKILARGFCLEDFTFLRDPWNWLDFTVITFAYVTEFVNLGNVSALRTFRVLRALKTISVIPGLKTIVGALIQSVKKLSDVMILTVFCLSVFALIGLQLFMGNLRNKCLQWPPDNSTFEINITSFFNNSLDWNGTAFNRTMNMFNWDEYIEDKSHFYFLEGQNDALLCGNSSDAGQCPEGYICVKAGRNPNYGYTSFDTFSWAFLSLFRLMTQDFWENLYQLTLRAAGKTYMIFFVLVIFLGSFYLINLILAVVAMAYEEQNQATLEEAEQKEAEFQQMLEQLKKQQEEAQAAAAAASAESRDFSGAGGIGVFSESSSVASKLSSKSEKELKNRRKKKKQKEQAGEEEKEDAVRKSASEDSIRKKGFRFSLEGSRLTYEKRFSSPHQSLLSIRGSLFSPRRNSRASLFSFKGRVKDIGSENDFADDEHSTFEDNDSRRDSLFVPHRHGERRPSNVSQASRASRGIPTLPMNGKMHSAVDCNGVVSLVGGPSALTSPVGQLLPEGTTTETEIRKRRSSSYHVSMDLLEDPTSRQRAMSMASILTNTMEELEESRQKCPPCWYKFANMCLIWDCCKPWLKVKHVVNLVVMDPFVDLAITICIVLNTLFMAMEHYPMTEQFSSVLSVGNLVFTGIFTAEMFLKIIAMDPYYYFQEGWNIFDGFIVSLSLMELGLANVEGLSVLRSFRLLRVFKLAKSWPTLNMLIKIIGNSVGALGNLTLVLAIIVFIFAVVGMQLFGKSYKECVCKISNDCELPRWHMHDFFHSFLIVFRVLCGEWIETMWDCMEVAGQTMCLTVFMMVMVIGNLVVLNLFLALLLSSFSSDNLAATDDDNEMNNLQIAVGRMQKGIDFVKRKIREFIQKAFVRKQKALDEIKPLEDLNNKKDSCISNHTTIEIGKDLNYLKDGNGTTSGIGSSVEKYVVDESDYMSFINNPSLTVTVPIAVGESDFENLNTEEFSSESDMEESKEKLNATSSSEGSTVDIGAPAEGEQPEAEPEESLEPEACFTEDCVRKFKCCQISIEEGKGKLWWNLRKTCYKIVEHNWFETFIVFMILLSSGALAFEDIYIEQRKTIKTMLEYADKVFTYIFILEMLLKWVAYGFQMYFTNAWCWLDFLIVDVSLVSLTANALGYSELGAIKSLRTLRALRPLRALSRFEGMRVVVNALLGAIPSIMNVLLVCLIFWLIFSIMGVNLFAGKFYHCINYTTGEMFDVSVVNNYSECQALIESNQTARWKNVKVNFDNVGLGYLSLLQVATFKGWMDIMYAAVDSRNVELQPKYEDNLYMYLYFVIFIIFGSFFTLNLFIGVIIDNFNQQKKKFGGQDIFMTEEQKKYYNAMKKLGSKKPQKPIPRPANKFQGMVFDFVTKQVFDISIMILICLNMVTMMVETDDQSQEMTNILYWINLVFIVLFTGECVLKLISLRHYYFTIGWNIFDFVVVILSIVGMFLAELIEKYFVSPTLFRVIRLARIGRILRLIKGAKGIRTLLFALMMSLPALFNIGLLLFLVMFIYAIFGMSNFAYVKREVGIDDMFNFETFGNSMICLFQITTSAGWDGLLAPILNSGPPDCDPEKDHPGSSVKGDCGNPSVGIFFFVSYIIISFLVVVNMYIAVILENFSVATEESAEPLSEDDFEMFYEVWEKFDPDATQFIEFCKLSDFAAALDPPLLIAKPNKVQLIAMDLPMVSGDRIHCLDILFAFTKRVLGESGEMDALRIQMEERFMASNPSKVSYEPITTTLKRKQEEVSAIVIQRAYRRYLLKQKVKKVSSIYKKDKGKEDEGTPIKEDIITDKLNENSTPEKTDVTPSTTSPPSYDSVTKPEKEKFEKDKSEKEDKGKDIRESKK

Take `O=c1ccc2c(OCCCC3CCCCC3)c3ccoc3cc2o1` [J 21, 4-(3-Cyclohexylpropoxy)-7H-furo[3,2-g][1]benzopyran-7-on]: the melting point – broadly, the temperature, or range, at which the solid turns liquid – was 115 °C. Further, on Nav1.2, the “S (selectivity over Nav1.2), S = Kd Nav1.2/Kd Kv1.3” value is on record as 8. Further, the chromatographic logP (commonly a lipophilicity value derived from retention on a column) in “LogP determined by HPLC” was determined as 5.34. Besides, the Kd (usually a measure of binding affinity in units of concentration) at Kv1.3 [1] came out at 144 ± 43 nM.

`O=c1ccc2c(OCCc3ccccc3)c3ccoc3cc2o1` [J 09, 4-(2-Phenylethoxy)-7H-furo[3,2-g][1]benzopyran-7-one]: the melting point was 154.5 °C. At Nav1.2, the “S (selectivity over Nav1.2), S = Kd Nav1.2/Kd Kv1.3” value worked out at 41. The chromatographic logP in “LogP determined by HPLC” was 3.55. The compound further had a Kd on Kv1.3 [1] of 169 ± 16 nM.

Compound `O=c1ccc2c(OCCC3CCCCC3)c3ccoc3cc2o1` [J 23, 4-(2-Cyclohexylethoxy)-7H-furo[3,2-g][1]benzopyran-7-on] returned a melting point of 117 °C. For the same compound, the “S (selectivity over Nav1.2), S = Kd Nav1.2/Kd Kv1.3” value at Nav1.2 is reported as 11. This compound also returned a chromatographic logP in “LogP determined by HPLC” of 4.82. The compound also came in with a Kd at Kv1.3 [1] of 132 ± 33 nM.

Regarding `O=c1ccc2c(OCCCCc3ccccc3)c3ccoc3cc2o1` [J 19 (Psora 4), 4-(4-Phenylbutoxy)-7H-furo[3,2-g][1]benzopyran-7-one], in the data set “LogP determined by HPLC”, the chromatographic logP was determined as 4.33.

In turn, `O=c1ccc2c(OCCCc3ccccc3)c3ccoc3cc2o1` [J 15, 4-(3-Phenylpropoxy)-7H-furo[3,2-g][1]benzopyran-7-one] had a melting point of 109 °C. Moreover, at Kv1.3 [2], the “inhibition of Kv1.3 current” value is listed as “dose-dependent inhibition”. Besides, the “S (selectivity over Nav1.2), S = Kd Nav1.2/Kd Kv1.3” value on Nav1.2 came out at 397. Moreover, the chromatographic logP in “LogP determined by HPLC” was 3.97. The same compound registered a Kd on Kv1.3 [1] of 6.3 ± 1 nM.

As for `C=C1C[C@@]2(O)[C@@H]3CC[C@@]4(C)[C@@H]5C=CC(=O)OC[C@]5(C(C)OC(C)=O)[C@@H](OC(C)=O)[C@@H](OC(C)=O)[C@@H]4[C@@]3(C)[C@H](OC(C)=O)[C@H](OC(C)=O)[C@@]2(C)C2(C(=O)OC)O[C@H]12` (stereo partly drawn) [correolide], in data set [3], the “suppression of primary DTH response” value is on record as “effectively suppress” and the “suppression of secondary DTH response” value is recorded as “much less effective”.

“MgTX: Kv1.3 blocker (TIINVKCTSPKQCLPPCKAQFGQSAGAKCMNGKCKCYPH; ends and bridges not checked; cysteine pairing not given here; UniProt P40755 1-39, looked up)”: in data set [3], the “suppression of primary DTH response” value is listed as “effectively suppress” and the “suppression of secondary DTH response” value is listed as “much less effective”.

In turn, `O=c1ccc2c(OCc3ccccc3)c3ccoc3cc2o1` [5-BOP, 4-Benzyloxy-7H-furo[3,2-g][1]benzopyran-7-one] registered a melting point of 136 °C. In addition, the “S (selectivity over Nav1.2), S = Kd Nav1.2/Kd Kv1.3” value on Nav1.2 turned out to be 43. The chromatographic logP in the data set “LogP determined by HPLC” stood at 3.25. Besides, the Kd at Kv1.3 [1] came to 350 ± 72 nM.

`O=c1ccc2c(OCCCCCc3ccccc3)c3ccoc3cc2o1` [J 22, 4-(5-Phenylpentoxy)-7H-furo[3,2-g][1]benzopyran-7-one] yielded a melting point of 94.5 °C. In addition, the “S (selectivity over Nav1.2), S = Kd Nav1.2/Kd Kv1.3” value at Nav1.2 worked out at 262. In the data set “LogP determined by HPLC”, this compound had a chromatographic logP of 4.71. The compound further displayed a Kd at Kv1.3 [1] of 6.1 ± 0.7 nM.

As for `COc1c2ccoc2cc2oc(=O)ccc12` [5-MOP, 5-Methoxypsoralen], on potassium channels, the Kd was 100000 nM.

As for `O=c1ccc2c(OC/C=C/c3ccccc3)c3ccoc3cc2o1` [J 16, trans-4-(3-Phenyl-2-propenyloxy)-7H-furo[3,2-g][1]benzopyran-7-on], the melting point worked out at 140 °C. Also, the “S (selectivity over Nav1.2), S = Kd Nav1.2/Kd Kv1.3” value on Nav1.2 amounted to 41. Also, the chromatographic logP in “LogP determined by HPLC” came out at 3.79. Also, on Kv1.3 [1], the Kd was found to be 172 ± 37 nM.

In the case of `O=c1ccc2c(OCc3ccc(-c4ccccc4)cc3)c3ccoc3cc2o1` [J 20, 5-Biphenylmethoxypsoralen], the melting point came to 187 °C. The “S (selectivity over Nav1.2), S = Kd Nav1.2/Kd Kv1.3” value on Nav1.2 was found to be 286. The chromatographic logP in “LogP determined by HPLC” was 4.4. The same compound returned a Kd at Kv1.3 [1] of 3.5 ± 0.5 nM.

For the compound `CC(COc1c2ccoc2cc2oc(=O)ccc12)c1ccccc1` (stereo not drawn) [J 12, R,S-4-(2-Phenylpropoxy)-7H-furo[3,2-g][1]benzopyran-7-on], the melting point was 141.5 °C. On Nav1.2, the “S (selectivity over Nav1.2), S = Kd Nav1.2/Kd Kv1.3” value is listed as 25. Besides, the chromatographic logP in the data set “LogP determined by HPLC” was found to be 3.87. The compound further showed a Kd on Kv1.3 [1] of 72 ± 12 nM.

Compound `O=c1ccc2c(OCC3CCCCC3)c3ccoc3cc2o1` [J 14, 4-Cyclohexylmethoxy-7H-furo[3,2-g][1]benzopyran-7-on] displayed a melting point of 153.5 °C. For the same compound, the “S (selectivity over Nav1.2), S = Kd Nav1.2/Kd Kv1.3” value at Nav1.2 is 48. This compound also yielded a chromatographic logP in “LogP determined by HPLC” of 4.41. For the same compound, the dissociation constant Kd on Kv1.3 [1] came to 138 ± 17 nM.

In the case of `O=c1ccc2c(OC(c3ccccc3)c3ccccc3)c3ccoc3cc2o1` [J 17, 4-Diphenylmethoxy-7H-furo[3,2-g][1]benzopyran-7-on], the melting point came to 173 °C. Moreover, on Nav1.2, the “S (selectivity over Nav1.2), S = Kd Nav1.2/Kd Kv1.3” value stood at 38. In the data set “LogP determined by HPLC”, this compound yielded a chromatographic logP of 4.12. The same compound showed a Kd on Kv1.3 [1] of 68 ± 12 nM.
